The text below walks through data of patent publication US20230174571A1, “METHOD OF TREATING SHIP1-MEDIATED DISEASES USING PELOROL DERIVATIVES” (Zebrapeutics Inc., priority 2020, published 2023).

For one assay, the system named is MM.1S cells. Briefly: MM.1S tumour model in NOD/SCID mice. The assay is classed as in vivo, mouse. To be noted: NOD/SCID mice bearing MM.1S tumours; administered through drinking water. The procedure: The IBD model mice were dosed with 2 or 3 mg/kg of compounds of the present disclosure, for example compound I-1. The MM model mice were dosed with about 20 to about 50 mg/kg of compounds of the present disclosure, for example compound I-1. The appropriate amount of 5 mg/mL PBS solution with 5% v/v Cremophore EL/5% v/v ethanol as prepared above was diluted into the mice's drinking water.
MM.1S cells expressing firefly luciferase were injected along with Matrigel basement membrane into the upper flank of NOD/SCID mice and allowed to establish for two weeks. Compound I-1 or vehicle (n=4) were administered through drinking water (as described in General Methods).

The next assay concerns the target T1, SHIP1 (Mus musculus, UniProt Q9ES52).
T1 sequence (Q9ES52 1-1191): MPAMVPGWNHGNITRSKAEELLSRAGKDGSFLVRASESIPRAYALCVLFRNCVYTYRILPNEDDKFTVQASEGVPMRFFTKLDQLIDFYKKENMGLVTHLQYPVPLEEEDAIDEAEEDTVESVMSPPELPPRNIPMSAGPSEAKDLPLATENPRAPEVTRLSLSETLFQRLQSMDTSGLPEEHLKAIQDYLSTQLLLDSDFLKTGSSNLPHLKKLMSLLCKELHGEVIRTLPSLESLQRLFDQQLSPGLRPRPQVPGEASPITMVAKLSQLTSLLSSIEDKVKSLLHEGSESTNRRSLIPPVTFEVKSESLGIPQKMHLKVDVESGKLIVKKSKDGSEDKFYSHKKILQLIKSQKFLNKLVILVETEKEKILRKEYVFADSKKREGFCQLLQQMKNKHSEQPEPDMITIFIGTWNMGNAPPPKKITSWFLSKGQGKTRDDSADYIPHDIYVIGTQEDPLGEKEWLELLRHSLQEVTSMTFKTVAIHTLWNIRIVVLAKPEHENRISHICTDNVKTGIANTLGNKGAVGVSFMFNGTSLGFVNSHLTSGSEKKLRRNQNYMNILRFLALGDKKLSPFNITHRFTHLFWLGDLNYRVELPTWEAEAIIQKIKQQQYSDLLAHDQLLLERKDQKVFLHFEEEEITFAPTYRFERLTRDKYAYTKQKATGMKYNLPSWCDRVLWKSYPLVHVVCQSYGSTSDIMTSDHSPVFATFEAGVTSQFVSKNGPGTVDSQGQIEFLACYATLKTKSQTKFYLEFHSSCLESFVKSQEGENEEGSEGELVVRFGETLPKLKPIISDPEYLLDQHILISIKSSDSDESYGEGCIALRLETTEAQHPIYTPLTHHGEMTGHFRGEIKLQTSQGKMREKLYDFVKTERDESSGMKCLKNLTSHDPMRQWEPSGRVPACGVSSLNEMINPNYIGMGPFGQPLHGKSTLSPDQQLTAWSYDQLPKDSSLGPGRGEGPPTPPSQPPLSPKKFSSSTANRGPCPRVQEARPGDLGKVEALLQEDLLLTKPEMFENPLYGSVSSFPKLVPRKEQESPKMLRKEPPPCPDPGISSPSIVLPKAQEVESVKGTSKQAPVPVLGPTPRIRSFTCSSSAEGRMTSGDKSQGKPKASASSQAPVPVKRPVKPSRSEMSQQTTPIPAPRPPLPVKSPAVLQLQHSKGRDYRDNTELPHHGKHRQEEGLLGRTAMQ
Conditions: binds to the same SHIP1 C2 domain as PI(3,4)P2; Ong et al., 2007; cited from earlier work.

In assay [1] the target is T2, Clover-SHIP1 and mRuby2-STAT3 (Mus musculus, UniProt Q9ES52).
T2 construct: expressed in transfected cells; host or cells: J17 (SHIP1-/- mouse macrophage line), lentiviral transduction
T2 sequence (P42227 whole entry partner, one chain of several): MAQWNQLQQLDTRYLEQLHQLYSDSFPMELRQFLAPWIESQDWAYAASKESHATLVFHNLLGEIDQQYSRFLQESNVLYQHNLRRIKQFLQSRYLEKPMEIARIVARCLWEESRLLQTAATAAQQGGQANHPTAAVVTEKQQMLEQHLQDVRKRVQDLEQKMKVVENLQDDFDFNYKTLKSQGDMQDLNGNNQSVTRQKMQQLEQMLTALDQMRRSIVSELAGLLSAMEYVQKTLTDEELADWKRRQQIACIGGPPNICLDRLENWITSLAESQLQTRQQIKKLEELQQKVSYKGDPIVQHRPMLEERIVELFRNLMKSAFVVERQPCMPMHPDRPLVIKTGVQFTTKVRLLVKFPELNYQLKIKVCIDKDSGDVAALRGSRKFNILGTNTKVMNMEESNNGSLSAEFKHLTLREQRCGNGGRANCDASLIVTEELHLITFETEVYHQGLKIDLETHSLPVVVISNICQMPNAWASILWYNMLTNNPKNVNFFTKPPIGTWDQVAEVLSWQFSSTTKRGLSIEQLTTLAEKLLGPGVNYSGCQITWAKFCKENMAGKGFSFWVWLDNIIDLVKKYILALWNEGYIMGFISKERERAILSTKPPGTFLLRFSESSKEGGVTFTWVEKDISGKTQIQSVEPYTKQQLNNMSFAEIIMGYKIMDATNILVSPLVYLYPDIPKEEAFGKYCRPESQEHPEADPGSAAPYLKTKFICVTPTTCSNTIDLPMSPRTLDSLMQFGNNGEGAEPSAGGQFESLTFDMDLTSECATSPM
Put plainly: Acceptor photobleaching FRET analysis. Conditions: J17 SHIP1−/− cells expressing Clover-SHIP1/mRuby2-STAT3; 1 minute; 100 ng/ml IL10, IL6 or 20 μM I-2. The class given is cell-based. The procedure:
Acceptor Photobleaching FRET analysis. J17 cells expressing Clover-SHIP1 and/or mRuby2-STAT3 were seeded at 50×10^4 cells per well in 8-well Ibidi p-Slides (Ibidi GmbH, Martinsried, Germany). After overnight incubation, cells were serum-starved with Mac media containing 1% serum for 3 hours before media replacement with Leibovitz's (L-15) media (Invitrogen, Burlington, ON) supplemented with 1% serum, 10 μM β-mercaptoethanol, 150 μM monothioglycolate and 1 mM L-glutamine for confocal microscopy imaging. Cells were imaged on a Leica SP8X on DMi8 confocal microscope system with a 63×/1.3 Gly HC PL APO CS2 objective using a white light laser line with 488 nm for donor excitement and 555 nm for acceptor excitement. Photobleaching FRET analysis was performed by measuring Clover-SHIP1 donor fluorescence intensity before and after bleaching the acceptor, mRuby2-STAT3, within a field of cells ‘region of interest’ (ROI), at 100% laser intensity for 60 frames. Acceptor photobleaching was performed first in resting cells then at 1 minute (±5 seconds) following ‘mock’ stimulation with L-15 media, or L-15 media containing 100 ng/ml IL10, IL6 or 20 μM compound I-2. Donor and acceptor fluorescence intensity of individual cells within the bleached ROI was quantified before and after bleaching. Percentage FRET efficiency was calculated as % FRETeff=100×(Dpost−Dpre)/Dpost where Dpre and Dpost represent Clover-SHIP1 donor fluorescence intensity before and after bleaching, respectively.

For assay [2], the system named is LPS-stimulated TNFα production. Put plainly: Measurement of TNFα production in LPS-stimulated SHIP1 KO cells reconstituted with SHIP1. The assay is classed as cell-based, mouse. Conditions: 10 ng/ml LPS. The procedure:
Cell lines. J16 and J17 cell lines derived from SHIP1+/+and −/−BMDM respectively were previously described (Ming-Lum et al., 2012) and cultured in Mac media (IMDM supplemented with 10% (v/v) FCS, 10 μM β-mercaptoethanol, 150 μM monothioglycolate and 1 mM L-glutamine). J17 cells expressing wild type and mutant His6-SHIP1, Clover-SHIP1 or mRuby2-STAT3 constructs were generated by lentivirus mediated gene transfer as described (Cheung et al., 2013). Transduced cells were selected with 5 μg/ml blasticidin. Clover-SHIP1 and mRuby2-STAT3 cells were further subjected to fluorescent activated cell sorting to select the brightest cells on a FACS Aria II cytometer.
Measurement of TNFα production. Cells were seeded at 50×10^4 cells per well in a 96-well tissue culture plate and allowed to adhere overnight. Media was changed the next day 1 hour prior to stimulation. Cells were stimulated with 1 or 10 ng/ml LPS+/−various concentrations of IL10 for 1 hour. Supernatant was collected and secreted TNFα protein levels were measured using a BD OptEIA Mouse TNFα Enzyme-Linked Immunosorbent Assay (ELISA) kit (BD Biosciences, Mississauga, ON). Triplicates wells were used for each stimulation condition. IC50 values were calculated from three independent experiments and differences in IL10 […] values from cells expressing SHIP1 mutants vs SHIP1 WT protein were analyzed by one-way ANOVA.

`Cc1cc(O)cc2c1C1(C)CCC3C(C)(C)CCCC3(C)C1C2` (stereo not drawn) [Compound I-1]: the “tumour mass (bioluminescence imaging)” value in the assay on MM.1S cells was “effectively reduces tumour mass”. Also, at SHIP1, the SHIP1 functional activity result was “increases SHIP1 functional activity”.

Consider `CC12CCC3C(C)(C)C(N)CCC3(C)C1Cc1cc(O)cc(O)c12` (stereo not drawn) [Compound I-2], for which, in assay [1], the “Clover-mRuby2 FRET signal” value is “increases”.

On to “IL10: anti-inflammatory cytokine interleukin-10”, for which the “Clover-mRuby2 FRET signal” value in assay [1] is given as “increases”. For the same molecule, the TNFα production entry in assay [2] (cells expressing K681A SHIP1) was “not”; in assay [2] (cells expressing wild-type SHIP1), “inhibited TNFα production efficiently”.
